Results: ChEMBL document CHEMBL3044672, “N9- and N7-(Chloromethyl Phenymethyl)Chloropurine Derivatives from , '-Dichloroxylenes: Synthesis and Anticancer Activity” (2005)

How the values were obtained:
Format in all cases: functional
SK-OV-3 = assay: Cytotoxicity against Homo sapiens (human) SKOV3 cells after 48 hr by sulforhodamine B assay; conditions: SK-OV-3, 48 h
OVCAR-8 = assay: Cytotoxicity against Homo sapiens (human) OVCAR8 cells after 48 hr by sulforhodamine B assay; conditions: OVCAR-8, 48 h
UACC-62 = assay: Cytotoxicity against Homo sapiens (human) UACC62 cells after 48 hr by sulforhodamine B assay; conditions: UACC-62, 48 h
SK-MEL-5 = assay: Cytotoxicity against Homo sapiens (human) SK-MEL-5 cells after 48 hr by sulforhodamine B assay; conditions: SK-MEL-5, 48 h
SNB-19 = assay: Cytotoxicity against Homo sapiens (human) SNB19 cells after 48 hr by sulforhodamine B assay; conditions: SNB-19, 48 h
SF-539 = assay: Cytotoxicity against Homo sapiens (human) SF539 cells after 48 hr by sulforhodamine B assay; conditions: SF-539, 48 h
BT-549 = assay: Cytotoxicity against Homo sapiens (human) BT549 cells after 48 hr by sulforhodamine B assay; conditions: BT-549, 48 h
MDA-MB-231 = assay: Cytotoxicity against Homo sapiens (human) MDA-MB-231 cells after 48 hr by sulforhodamine B assay; conditions: MDA-MB-231, 48 h
MCF7 = assay: Cytotoxicity against Homo sapiens (human) MCF7 cells after 48 hr by sulforhodamine B assay; conditions: MCF7, 48 h
PC-3 = assay: Cytotoxicity against Homo sapiens (human) PC3 cells after 48 hr by sulforhodamine B assay; conditions: PC-3, 48 h
SN12C = assay: Cytotoxicity against Homo sapiens (human) SN12C cells after 48 hr by sulforhodamine B assay
RXF 393 = assay: Cytotoxicity against Homo sapiens (human) RXF393 cells after 48 hr by sulforhodamine B assay; conditions: RXF 393, 48 h; for CC50: read-out: LC50 (the source's name)
SF-268 [1] = assay: Cytotoxicity against Homo sapiens (human) SF268 cells after 48 hr by sulforhodamine B assay; conditions: SF-268, 48 h; for CC50: read-out: LC50 (the source's name)
KM12 = assay: Cytotoxicity against Homo sapiens (human) KM12 cells after 48 hr by sulforhodamine B assay; conditions: KM12, 48 h; for CC50: read-out: LC50 (the source's name)
HT-29 = assay: Cytotoxicity against Homo sapiens (human) HT-29 cells after 48 hr by sulforhodamine B assay; conditions: HT-29, 48 h; for CC50: read-out: LC50 (the source's name)
COLO 205 = assay: Cytotoxicity against Homo sapiens (human) COLO205 cells after 48 hr by sulforhodamine B assay; conditions: COLO 205, 48 h; for CC50: read-out: LC50 (the source's name)
NCI-H522 = assay: Cytotoxicity against Homo sapiens (human) NCI-H522 cells after 48 hr by sulforhodamine B assay; conditions: NCI-H522, 48 h; for CC50: read-out: LC50 (the source's name)
NCI-H23 = assay: Cytotoxicity against Homo sapiens (human) NCI-H23 cells after 48 hr by sulforhodamine B assay; conditions: NCI-H23, 48 h; for CC50: read-out: LC50 (the source's name)
HOP-62 = assay: Cytotoxicity against Homo sapiens (human) HOP62 cells after 48 hr by sulforhodamine B assay; conditions: HOP-62, 48 h; for CC50: read-out: LC50 (the source's name)
EKVX = assay: Cytotoxicity against Homo sapiens (human) EKVX cells after 48 hr by sulforhodamine B assay; conditions: for CC50: read-out: LC50 (the source's name)
RPMI-8226 = assay: Cytotoxicity against Homo sapiens (human) RPMI8226 cells after 48 hr by sulforhodamine B assay; conditions: RPMI-8226, 48 h; for CC50: read-out: LC50 (the source's name)
K562 = assay: Cytotoxicity against Homo sapiens (human) K562 cells after 48 hr by sulforhodamine B assay; conditions: K562, 48 h; for CC50: read-out: LC50 (the source's name)
SF-268 [2] = assay: Cytotoxicity against Homo sapiens (human) SF268 cells assessed as cell growth at 10^-4 M after 48 hr by […] assay; conditions: SF-268, 48 h, read-out: Activity
NCI-H460 = assay: Cytotoxicity against Homo sapiens (human) NCI-H460 cells assessed as cell growth at 10^-4 M after 48 hr by Alamar blue assay; conditions: NCI-H460, 48 h, read-out: Activity
OVCAR-4 = assay: Cytotoxicity against Homo sapiens (human) OVCAR4 cells after 48 hr by sulforhodamine B assay; conditions: OVCAR-4, 48 h
LOX IMVI = assay: Cytotoxicity against Homo sapiens (human) LOXIMVI cells after 48 hr by sulforhodamine B assay
SNB-75 = assay: Cytotoxicity against Homo sapiens (human) SNB75 cells after 48 hr by sulforhodamine B assay; conditions: SNB-75, 48 h

## ClCc1ccc(Cn2cnc3ncnc(Cl)c32)cc1
SK-OV-3
  GI50: 11.2 µM
  LC50: 47.9 µM
  TGI: 23.4 µM
OVCAR-8
  GI50: 3.16 µM
  LC50 (concentration killing 50% of cells): 56.2 µM
  TGI: 11 µM
UACC-62
  GI50: 2.51 µM
  LC50 (concentration causing 50% net cell kill): 34.7 µM
  TGI: 12 µM
SK-MEL-5
  GI50: 2.81 µM
  LC50: 34.7 µM
  TGI: 12 µM
SNB-19
  GI50: 1.69 µM
  LC50: 5.75 µM
  TGI: 3.16 µM
SF-539
  GI50: 2.08 µM
  LC50 (concentration killing 50% of cells): 6.76 µM
  TGI: 3.71 µM
BT-549
  GI50: 3.71 µM
  LC50 (50% lethal concentration): 56.2 µM
  TGI: 17 µM
MDA-MB-231
  GI50: 1.77 µM
  LC50: 6.3 µM
  TGI: 3.38 µM
MCF7
  GI50: 1.34 µM
  LC50 (concentration killing 50% of cells): 6.45 µM
  TGI: 2.95 µM
PC-3
  GI50: 1.58 µM
  LC50 (concentration causing 50% cell kill): 5.37 µM
  TGI: 2.95 µM
SN12C
  GI50: 3.63 µM
  LC50 (50% lethal concentration): 40.7 µM
  TGI: 14.8 µM
RXF 393
  GI50: 1.65 µM
  TGI: 4.16 µM
  CC50: 12 µM
SF-268 [1]
  GI50: 1.65 µM
  TGI: 3.38 µM
  CC50: 7.07 µM
KM12
  GI50: 1.65 µM
  TGI: 3.38 µM
  CC50: 7.07 µM
HT-29
  GI50: 1.23 µM
  TGI: 3.63 µM
  CC50: 56.2 µM
COLO 205
  GI50: 1.9 µM
  TGI: 3.8 µM
  CC50: 7.41 µM
NCI-H522
  GI50: 4.26 µM
  TGI: > 100 µM
  CC50: > 100 µM
NCI-H23
  GI50: 15.8 µM
  TGI: 30.9 µM
  CC50: 58.9 µM
HOP-62
  GI50: 1.77 µM
  TGI: 3.16 µM
  CC50: 5.62 µM
EKVX
  GI50: 2.23 µM
  TGI: 4.46 µM
  CC50: 8.7 µM
RPMI-8226
  GI50: 1.28 µM
  TGI: 2.69 µM
  CC50: 5.62 µM
K562
  GI50: 3.01 µM
  TGI: > 100 µM
  CC50: > 100 µM
SF-268 [2]
  growth at 100 µM: 1%
NCI-H460
  growth at 100 µM: 0%

## ClCc1ccc(Cn2cnc3c(Cl)ncnc32)cc1
SK-OV-3
  GI50: 3.38 µM
  LC50: 91.2 µM
  TGI: 13.8 µM
OVCAR-8
  GI50: 3.02 µM
  LC50 (concentration killing 50% of cells): 64.6 µM
  TGI: 15.1 µM
OVCAR-4
  GI50: 2.45 µM
  LC50 (concentration killing 50% of cells): > 100 µM
  TGI: 6.6 µM
UACC-62
  GI50: 1.23 µM
  LC50 (concentration causing 50% net cell kill): 9.45 µM
  TGI: 33.9 µM
SK-MEL-5
  GI50: 3.23 µM
  LC50: 74.1 µM
  TGI: 20.9 µM
LOX IMVI
  GI50: 1 µM
  LC50: 13.5 µM
  TGI: 3.46 µM
SNB-19
  GI50: 3.63 µM
  LC50: 89.1 µM
  TGI: 21.9 µM
SF-539
  LC50 (concentration killing 50% of cells): 70.8 µM
BT-549
  GI50: 5.62 µM
  LC50 (50% lethal concentration): 57.5 µM
  TGI: 21.4 µM
MDA-MB-231
  GI50: 1.77 µM
  LC50: 8.7 µM
  TGI: 3.89 µM
MCF7
  GI50: 0.41 µM
  LC50 (concentration killing 50% of cells): > 100 µM
  TGI: 77.6 µM
PC-3
  GI50: 4.78 µM
  LC50 (concentration causing 50% cell kill): > 100 µM
  TGI: 72.4 µM
SN12C
  GI50: 1.02 µM
  LC50 (50% lethal concentration): 5.37 µM
  TGI: 2.34 µM
RXF 393
  GI50: 2.3 µM
  TGI: 5.49 µM
  CC50: > 100 µM
SF-268 [1]
  GI50: 0.64 µM
  TGI: 2.88 µM
  CC50: 9.33 µM
KM12
  GI50: 2.14 µM
  TGI: 10.2 µM
  CC50: 95.5 µM
COLO 205
  GI50: 2.23 µM
  TGI: > 100 µM
  CC50: > 100 µM
NCI-H522
  GI50: 3.54 µM
  TGI: > 100 µM
  CC50: > 100 µM
NCI-H23
  GI50: 0.66 µM
  TGI: 2.45 µM
  CC50: 7.76 µM
HOP-62
  GI50: 1.94 µM
  TGI: 6.76 µM
  CC50: 32.4 µM
EKVX
  GI50: 2.45 µM
  TGI: 6.92 µM
  CC50: 38.9 µM
RPMI-8226
  GI50: 2.13 µM
  TGI: 9.34 µM
  CC50: > 100 µM
K562
  GI50: 2.91 µM
  TGI: > 100 µM
  CC50: > 100 µM
SF-268 [2]
  growth at 100 µM: 26%
NCI-H460
  growth at 100 µM: 0%

## Nc1nc(Cl)c2ncn(Cc3cccc(CCl)c3)c2n1
SK-OV-3
  GI50: 24 µM
  LC50: > 100 µM
  TGI: 67.6 µM
OVCAR-8
  GI50: 2.29 µM
  LC50 (concentration killing 50% of cells): 53.7 µM
  TGI: 6.76 µM
OVCAR-4
  GI50: 1.95 µM
  LC50 (concentration killing 50% of cells): 9.54 µM
  TGI: 4.26 µM
UACC-62
  GI50: 2.09 µM
  LC50 (concentration causing 50% net cell kill): 13.5 µM
  TGI: 4.78 µM
SK-MEL-5
  GI50: 11 µM
  LC50: 51.3 µM
  TGI: 23.4 µM
LOX IMVI
  GI50: 3.38 µM
  LC50: 81.3 µM
  TGI: 13.2 µM
SNB-75
  GI50: 5.75 µM
  TGI: 19.5 µM
SNB-75; read-out: LC50 (the source's name)
  CC50: 51.3 µM
SNB-19
  GI50: 3.16 µM
  LC50: 46.8 µM
  TGI: 15.1 µM
SF-539
  GI50: 4.67 µM
  LC50 (concentration killing 50% of cells): 69.2 µM
  TGI: 20.4 µM
BT-549
  GI50: 4.07 µM
  LC50 (50% lethal concentration): 58.9 µM
  TGI: 17.4 µM
MDA-MB-231
  GI50: 12 µM
  LC50: 69.2 µM
  TGI: 28.8 µM
MCF7
  GI50: 2.39 µM
  LC50 (concentration killing 50% of cells): 53.7 µM
  TGI: 9.55 µM
PC-3
  GI50: 9.77 µM
  LC50 (concentration causing 50% cell kill): 63.1 µM
  TGI: 25.1 µM
SN12C
  GI50: 4.46 µM
  LC50 (50% lethal concentration): 39.8 µM
  TGI: 15.5 µM
SF-268 [1]
  GI50: 3.02 µM
  TGI: 10.2 µM
  CC50: 67.6 µM
KM12
  GI50: 3.31 µM
  TGI: 13.2 µM
  CC50: 37.1 µM
HT-29
  GI50: 2.51 µM
  TGI: 9.77 µM
  CC50: 64.6 µM
COLO 205
  GI50: 6.76 µM
  TGI: 27.5 µM
  CC50: 97.7 µM
NCI-H522
  GI50: 3.31 µM
  TGI: 13.5 µM
  CC50: 81.3 µM
NCI-H23
  GI50: 2.04 µM
  TGI: 5.01 µM
  CC50: 26.9 µM
HOP-62
  GI50: 5.75 µM
  TGI: 20.4 µM
  CC50: 58.9 µM
EKVX
  GI50: 21.4 µM
  TGI: 36.3 µM
  CC50: 60.2 µM
RPMI-8226
  GI50: 2.39 µM
  TGI: 11.8 µM
  CC50: > 100 µM
K562
  GI50: 4.36 µM
  TGI: > 100 µM
  CC50: > 100 µM
SF-268 [2]
  growth at 100 µM: 0%
NCI-H460
  growth at 100 µM: 0%
